Experimental data from patent US8110675B2, “TP expression-inhibiting compound and siRNA sequence thereof” (Chang Gung University, priority 2009, dated 2012).

System: NPC-TW02 and NPC-TW02/TP cells
Assay: cytotoxicity assay with 5′-DFUR, apoptosis by annexin V flow cytometry
Type: cell-based
Conditions: TP over-expression, 72 hours
Protocol: Refer to FIG. 1A and FIG. 1B. A cell line of nasopharyngeal cancer NPC-TW02/TP is established to stably express exogenous TP. First, the TP-expression carrier pcDNA3.1-PT is transfected to the cell line. Next, the cell line is screened and then cultivated in a culture solution having 500 μg/ml G418. Next is performed a cytotoxicity assay, wherein NPC-TW02 and NPC-TW02/TP are respectively processed with 5′-DFUR (Sigma-Aldrich, St. Louis, Mo., USA). Next, the cell lines are further cultivated for 72 hours. Next, the cell membranes are everted to expose phosphatidylserine. Then, phosphatidylserine is analyzed with the Vybrant® Apoptosis Assay Kit #2 (a product of Invitrogen).
Firstly, 2×10^5 cells are taken out and washed with PBS. Next, a buffer solution (10 mM HEPES, 140 mM NaCl, 2.5 mM CaCl2, pH 7.4) is used to adjust the solution to have a cell concentration of 2×10^6/mL. Next, 5 μl Alexa Fluor® 488 annexin V is added into 100 μl cell suspension, and then the cell suspension reacts at an ambient temperature for 15 minutes. Next, the cell specimens (10000 events) are analyzed with a flow cytometer (a product of Becton Dickinson), as shown in FIG. 3. […] Then, phosphatidylserine is analyzed with the Vybrant® Apoptosis Assay Kit #2 (a product of Invitrogen).

Structure (SMILES): C[C@H]1O[C@@H](n2cc(F)c(=O)[nH]c2=O)[C@H](O)[C@@H]1O [5′-DFUR, 5-fluoro-5′-deoxyuridine]
- sensitivity of TP over-expressing nasopharyngeal cancer cells / induction of apoptosis: can induce the apoptosis of cancer cells
